US20210292330A1, “PYRROLIDINE-FUSED HETEROCYCLES” (Erasca, Inc., priority 2020, published 2021)

Target: T1, KRAS 4B G12C protein (Homo sapiens, UniProt P01116, G12C)
T1 construct: This protein contained 188 amino acids in total, including an N-terminal 6-Histidine tag; made in house; host or cells: E. coli BL21
Assay: In vitro covalent adduct formation (CAF) assay by LC-MS
Format: binding
Conditions: compound 10 μM, protein 5 μM, 22° C., percentage of protein bound by the compound
Method: In vitro covalent adduct formation assay: Covalent adduct formation (CAF) reactions between Cys12 of the KRAS 4B G12C protein and some of the compounds of Table 1 were measured in vitro using liquid chromatography-mass spectrometry (LC-MS).
Recombinant Human KRAS 4B protein containing the G12C mutation was used in compound screening experiments. This protein contained 188 amino acids in total, including an N-terminal 6-Histidine tag, followed by a Tobacco Etch Virus (TEV) tag, followed by residues 1-169 of the native KRAS 4B sequence. The exact mass of the protein was 21,310 Da as determined by mass spectrometry. The full amino acid sequence is shown below:
The recombinant protein was expressed in E. coli BL21 cells and purified using affinity chromatography via a Ni-NTA column. […] Pure KRAS 4B G12C protein was diluted to a concentration of 5 μM in Tris Buffered Saline, pH 7.4. The compounds were dissolved in DMSO and added to the diluted protein to make a 10 μM concentration. The total DMSO concentration in the reaction was 4%. The reaction was mixed by pipetting and incubated at 22° C. for one hour. Aliquots of the reaction were taken over time and diluted 2:1 in 0.1% formic acid. The intact mass of the protein samples was measured by LC-MS using a QExactive+ mass spectrometer (Thermo Scientific). An amount of 500 ng total protein was injected onto a C8 reverse phase column, eluted with a seven-minute gradient of 30%-90% acetonitrile/0.1% formic acid, and analyzed for intact mass by the mass spectrometer. Adducts identified were confirmed to be within 1 Dalton of the expected mass, and the relative ratios of free:adduct protein were used to quantify the percentage of protein bound by the compound. CAF reactions were run in duplicate, with a typical variability of ±5%.

## C=CC(=O)N1CCN(c2nc(OC[C@@H]3CCCN3C)nc3c2CN(Cc2cc(O)ccc2C)C3)[C@@H](C)C1 [1-1, 1-[(3S)-4-{6-[(5-hydroxy-2-methylphenyl)methyl]-2-{[(2S)-1-methylpyrrolidin-2-yl]methoxy}-5H,7H-pyrrolo[3,4-d]pyrimidin-4-yl}-3-methylpiperazin-1-yl]prop-2-en-1-one]
  CAF (10 minutes/60 minutes) at 10 micromolar: 10 minutes: 69%
  CAF (10 minutes/60 minutes) at 10 micromolar: 60 minutes: 93%

## C=CC(=O)N1CCN(c2nc(OC[C@@H]3CCCN3C)nc3c2CN(Cc2cc(OC)ccc2C)C3)[C@@H](C)C1 [1-2]
  CAF (10 minutes/60 minutes) at 10 micromolar: 10 minutes: 0%
  CAF (10 minutes/60 minutes) at 10 micromolar: 60 minutes: 4%

## C=CC(=O)N1CCN(c2nc(OC[C@@H]3CCCN3C)nc3c2CN(Cc2c(C)cccc2C)C3)[C@@H](C)C1 [1-3]
  CAF (10 minutes/60 minutes) at 10 micromolar: 10 minutes: 6%
  CAF (10 minutes/60 minutes) at 10 micromolar: 60 minutes: 33%

## C=CC(=O)N1CCN(c2nc(OC[C@@H]3CCCN3C)nc3c2CN(Cc2cc(OC)ccc2C)C3)C[C@@H]1CC#N [1-6]
  CAF (10 minutes/60 minutes) at 10 micromolar: 10 minutes: 65%
  CAF (10 minutes/60 minutes) at 10 micromolar: 60 minutes: 93%

## C=CC(=O)N1CCN(c2nc(OC[C@@H]3CCCN3C)nc3c2CN(Cc2c(O)cccc2F)C3)C[C@@H]1CC#N [1-7, 2-((S)-1-acryloyl-4-(6-(2-fluoro-6-hydroxybenzyl)-2-(((S)-1-methylpyrrolidin-2-yl)methoxy)-6,7-dihydro-5H-pyrrolo[3,4-d]pyrimidin-4-yl)piperazin-2-yl)acetonitrile]
  CAF (10 minutes/60 minutes) at 10 micromolar: 10 minutes: 96%
  CAF (10 minutes/60 minutes) at 10 micromolar: 60 minutes: 97%

## C=CC(=O)N1CCN(c2nc(OC[C@@H]3CCCN3C)nc3c2CN(Cc2cc(C(F)(F)F)ccc2C)C3)C[C@@H]1CC#N [1-8]
  CAF (10 minutes/60 minutes) at 10 micromolar: 10 minutes: 20%
  CAF (10 minutes/60 minutes) at 10 micromolar: 60 minutes: 62%

## C=CC(=O)N1CCN(c2nc(OC[C@@H]3CCCN3C)nc3c2CN(c2cccc4ccccc24)C3)C[C@@H]1CC#N [1-9, 2-[(2S)-4-(2-{[(2S)-1-methylpyrrolidin-2-yl]methoxy}-6-(naphthalen-1-yl)-5H,7H-pyrrolo[3,4-d]pyrimidin-4-yl)-1-(prop-2-enoyl)piperazin-2-yl]acetonitrile]
  CAF (10 minutes/60 minutes) at 10 micromolar: 10 minutes: 35%
  CAF (10 minutes/60 minutes) at 10 micromolar: 60 minutes: 85%

## C=CC(=O)N1CCN(c2nc(OC[C@@H]3CCCN3C)nc3c2CN(Cc2cc(F)ccc2C)C3)C[C@@H]1CC#N [1-11]
  CAF (10 minutes/60 minutes) at 10 micromolar: 10 minutes: 87%
  CAF (10 minutes/60 minutes) at 10 micromolar: 60 minutes: 98%

## C=CC(=O)N1CCN(c2nc(OC[C@@H]3CCCN3C)nc3c2CN(Cc2cc(F)cc(F)c2)C3)C[C@@H]1CC#N [1-12]
  CAF (10 minutes/60 minutes) at 10 micromolar: 10 minutes: 28%
  CAF (10 minutes/60 minutes) at 10 micromolar: 60 minutes: 74%

## C=CC(=O)N1CCN(c2nc(OC[C@@H]3CCCN3C)nc3c2CN(Cc2cc(F)cc(F)c2)C3)[C@@H](C)C1 [1-13]
  CAF (10 minutes/60 minutes) at 10 micromolar: 10 minutes: 0%/ 0%
  CAF (10 minutes/60 minutes) at 10 micromolar: 60 minutes: 0%/ 0%

## C=CC(=O)N1CCN(c2nc(OC[C@@H]3CCCN3C)nc3c2CN(Cc2c(F)cccc2F)C3)[C@@H](C)C1 [1-14]
  CAF (10 minutes/60 minutes) at 10 micromolar: 10 minutes: 0%
  CAF (10 minutes/60 minutes) at 10 micromolar: 60 minutes: 8%

## C=CC(=O)N1CCN(c2nc(OC[C@@H]3CCCN3C)nc3c2CN(Cc2cc(C(F)(F)F)ccc2C)C3)[C@@H](C)C1 [1-15]
  CAF (10 minutes/60 minutes) at 10 micromolar: 10 minutes: 0%/ 0%
  CAF (10 minutes/60 minutes) at 10 micromolar: 60 minutes: 0%/ 0%

## C=CC(=O)N1CCN(c2nc(OC[C@@H]3CCCN3C)nc3c2CN(Cc2cccc4cccc(C)c24)C3)C[C@@H]1CC#N [1-16]
  CAF (10 minutes/60 minutes) at 10 micromolar: 10 minutes: 40%
  CAF (10 minutes/60 minutes) at 10 micromolar: 60 minutes: 86%

## C=CC(=O)N1CCN(c2nc(OC[C@@H]3CCCN3C)nc3c2CN(c2cccc4cccc(C)c24)C3)C[C@@H]1CC#N [1-17, 2-((S)-1-acryloyl-4-(6-(8-methylnaphthalen-1-yl)-2-(((S)-1-methylpyrrolidin-2-yl)methoxy)-6,7-dihydro-5H-pyrrolo[3,4-d]pyrimidin-4-yl)piperazin-2-yl)acetonitrile]
  CAF (10 minutes/60 minutes) at 10 micromolar: 10 minutes: 90%
  CAF (10 minutes/60 minutes) at 10 micromolar: 60 minutes: 99%
